This is an account of results in PubChem BioAssay (NCI).

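Cells were grown in 96-well plates and exposed to each compound for 48 hours at five concentrations; endpoints were interpolated linearly between bracketing concentrations, or set to the highest concentration if not reached. The concentration for 50% growth inhibition is given as GI50. The concentration for full growth arrest is given as TGI.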

Some test systems named below: 786-0 renal; COLO 205 colon; HCT-116 colon; IGROV1 ovarian; K-562 leukemia; SK-MEL-2 melanoma; U251 CNS; CCRF-CEM leukemia; SR leukemia; PC-3 prostate.
What all share (experiment): NCI tumour cell line growth inhibition, 48 h

In the case of `C[C@]12CC/C(=N\O)C=C1CC[C@@H]1C2CC[C@@]2(C)C1CC[C@@H]2OC1CCCCO1` (stereo not given in full), the TGI in the experiment with 786-0 renal is 33.3 µM; in the experiment with COLO 205 colon, 32.6 µM; in the experiment on HCT-116 colon it was 43.8 µM; with IGROV1 ovarian, > 100 µM; in the experiment on K-562 leukemia, 46.3 µM; with SK-MEL-2 melanoma, 30.4 µM. Also, the TGI in the experiment on U251 CNS was 32.4 µM.
On to `O=c1c(Br)cc2nc3ccccc3sc-2c1Br`, for which the TGI is 30.8 µM in the experiment with 786-0 renal; > 100 µM in the experiment with CCRF-CEM leukemia; > 91 µM in the experiment on COLO 205 colon; > 100 µM in the experiment with HCT-116 colon; > 100 µM in the experiment with IGROV1 ovarian; 55.5 µM in the experiment with K-562 leukemia. Also, the TGI in the experiment with SK-MEL-2 melanoma, with SR leukemia and with U251 CNS was > 100 µM in each case.
As for `O=c1ncc(F)cn1C1OC(CO)C(O)C1O` (stereo not given), the TGI with 786-0 renal is > 100 µM; in the experiment on CCRF-CEM leukemia, > 63.6 µM; with COLO 205 colon, > 37.9 µM; in the experiment on HCT-116 colon, > 100 µM; with IGROV1 ovarian, > 80 µM; in the experiment with K-562 leukemia, > 100 µM. In addition, the TGI is > 46.5 µM in the experiment on SK-MEL-2 melanoma, > 46.8 µM in the experiment on SR leukemia and > 56.6 µM in the experiment with U251 CNS.
Consider `CC(=O)OC[C@@H](COC(=O)/C=C/c1ccc(O)cc1)OC1OC(CO)C(O)C(O)C1O` (stereo not given in full), for which the TGI with 786-0 renal, in the experiment on CCRF-CEM leukemia, with COLO 205 colon, with HCT-116 colon, with IGROV1 ovarian and in the experiment on K-562 leukemia was > 100 µM throughout. Further, the TGI with SK-MEL-2 melanoma, with SR leukemia and with U251 CNS was > 100 µM each time.
Turning to `CCOC(=O)N1CCC(=O)C(CNC23CC4CC(CC(C4)C2)C3)C1` (stereo not given), the TGI in the experiment with 786-0 renal was 29.4 µM; in the experiment with CCRF-CEM leukemia it was 35.9 µM; in the experiment on COLO 205 colon, > 100 µM; in the experiment on K-562 leukemia it was 31.2 µM; with SK-MEL-2 melanoma, > 100 µM; with SR leukemia, 51.6 µM. Moreover, the TGI with U251 CNS is > 100 µM.
As for `O=C(Nc1ccncc1)C(=O)c1cn(S(=O)(=O)c2ccc(Cl)cc2)c2ccccc12`, the GI50 in the experiment on 786-0 renal was 3.5 µM; in the experiment with CCRF-CEM leukemia, 3.18 µM; in the experiment with COLO 205 colon, > 61.5 µM; in the experiment on HCT-116 colon, 0.415 µM; with IGROV1 ovarian it was 3.29 µM; in the experiment on K-562 leukemia it was 1.08 µM. Also, the GI50 in the experiment on PC-3 prostate is 1.4 µM; with SK-MEL-2 melanoma, 3.24 µM; in the experiment with U251 CNS, 1.06 µM. The TGI with 786-0 renal was 45.2 µM; in the experiment with CCRF-CEM leukemia, > 100 µM; with COLO 205 colon, > 100 µM; with HCT-116 colon it was > 48.9 µM; with IGROV1 ovarian, > 100 µM; with K-562 leukemia, > 100 µM. Moreover, the figures for the TGI in the experiment with PC-3 prostate, with SK-MEL-2 melanoma and in the experiment with U251 CNS were > 55.5 µM, 27.3 µM and 17.8 µM, respectively.
`COC(=O)C(C(=O)C(=O)Nc1ccc([N+](=O)[O-])cc1[N+](=O)[O-])c1nc2ccc(Cl)cc2[nH]c1=O` (stereo not given): the TGI with 786-0 renal, in the experiment on CCRF-CEM leukemia, with COLO 205 colon, in the experiment with HCT-116 colon, in the experiment with IGROV1 ovarian and in the experiment with K-562 leukemia was > 100 µM throughout. For the same compound, the TGI with SK-MEL-2 melanoma is > 100 µM.
With `Nc1nnnn1CCO`, the TGI in the experiment with 786-0 renal, with COLO 205 colon, with HCT-116 colon, with IGROV1 ovarian, with K-562 leukemia and in the experiment with PC-3 prostate was > 100 µM throughout. Besides, the TGI in the experiment on SK-MEL-2 melanoma and in the experiment with U251 CNS was > 100 µM in each case.
For the compound `C/C(CC(=O)Nc1ccc(C)c(C)c1)=N\NC(N)=O`, the TGI in the experiment with 786-0 renal, in the experiment on CCRF-CEM leukemia, in the experiment on COLO 205 colon, with HCT-116 colon, in the experiment with IGROV1 ovarian and in the experiment with K-562 leukemia was > 100 µM each time. In addition, the TGI with SK-MEL-2 melanoma and with U251 CNS was > 100 µM each time.
`Cc1ccc(NC(=O)CC2Sc3ccccc3NC2=O)c(C)c1` (stereo not given): the TGI in the experiment with 786-0 renal is 26.5 µM; in the experiment with CCRF-CEM leukemia it was 78.4 µM; in the experiment on COLO 205 colon, 38.7 µM; in the experiment on HCT-116 colon, 22 µM; in the experiment with IGROV1 ovarian it was > 100 µM; in the experiment on K-562 leukemia, 19 µM. The TGI was 18.2 µM with SK-MEL-2 melanoma and 33.1 µM in the experiment with U251 CNS.
For the compound `O=[P+](O)c1ccsc1`, the TGI in the experiment with 786-0 renal, in the experiment on CCRF-CEM leukemia, in the experiment with COLO 205 colon, in the experiment on HCT-116 colon, with IGROV1 ovarian and with K-562 leukemia was > 100 µM each time. The TGI in the experiment with U251 CNS was > 100 µM.
Consider `Cc1cccc(C(C)(C)C)c1NC(=O)CC1C(=O)Nc2ccccc2S1(=O)=O` (stereo not given), for which the TGI with 786-0 renal was 21.5 µM; in the experiment on CCRF-CEM leukemia it was 7.8 µM; with HCT-116 colon, 22.3 µM; in the experiment with IGROV1 ovarian, 21.8 µM; in the experiment on K-562 leukemia, 13 µM; in the experiment with SK-MEL-2 melanoma it was 21.2 µM. The TGI in the experiment on SR leukemia was found to be 7.13 µM; with U251 CNS, 20.2 µM.
As for `CC12CCC3(OCCO3)C(OC(=O)c3ccccc3)=C1CCC21OCCO1` (stereo not given), the TGI in the experiment on 786-0 renal, in the experiment on CCRF-CEM leukemia, in the experiment with COLO 205 colon, with HCT-116 colon, in the experiment on IGROV1 ovarian and with SR leukemia was > 100 µM in each case. Moreover, the TGI in the experiment with U251 CNS is > 100 µM.
For the compound `NCCCCCCCn1c2c(c3ccccc3c1=O)C(=O)c1ccccc1-2`, the GI50 was 1.38 µM in the experiment on 786-0 renal; 0.648 µM in the experiment on CCRF-CEM leukemia; 2.07 µM in the experiment on COLO 205 colon; 1.42 µM in the experiment with HCT-116 colon; 1.43 µM in the experiment with IGROV1 ovarian; 1.31 µM in the experiment with K-562 leukemia. The GI50 with PC-3 prostate is 1.32 µM; in the experiment on SK-MEL-2 melanoma it was 2.33 µM; with U251 CNS it was 2.48 µM. In addition, the TGI in the experiment with 786-0 renal worked out at 2.75 µM; in the experiment with CCRF-CEM leukemia it was 2.19 µM; in the experiment with COLO 205 colon it was 5.15 µM; in the experiment on HCT-116 colon, 2.81 µM; in the experiment with IGROV1 ovarian, 3.58 µM; in the experiment on K-562 leukemia it was 2.62 µM. Moreover, the TGI worked out at 2.72 µM in the experiment with PC-3 prostate, 5.68 µM with SK-MEL-2 melanoma and 7.07 µM in the experiment on U251 CNS.
